Each structure is given as a SMILES string. A value given as a limit tells only on which side of the number the result lay.

The target of one test is h-CA IX (Homo sapiens, UniProt Q16790). As to the kind of experiment: stopped-flow CO2 hydrase assay, h-CA IX.
Another test addresses h-CA XII (Homo sapiens, UniProt O43570). As to the kind of experiment: stopped-flow CO2 hydrase assay, h-CA XII.
In the next test the target is h-CA I (Homo sapiens, UniProt P00915). As to the kind of experiment: stopped-flow CO2 hydrase assay, h-CA I.
Sequence of h-CA I (P00915 whole entry): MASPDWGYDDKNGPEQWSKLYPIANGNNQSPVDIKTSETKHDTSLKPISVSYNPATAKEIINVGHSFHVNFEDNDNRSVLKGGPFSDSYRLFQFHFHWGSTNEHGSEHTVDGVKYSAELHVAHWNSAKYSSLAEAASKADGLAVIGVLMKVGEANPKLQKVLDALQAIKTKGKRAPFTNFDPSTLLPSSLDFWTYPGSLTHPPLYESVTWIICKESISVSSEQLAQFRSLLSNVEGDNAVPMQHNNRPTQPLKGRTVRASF
In test [1] the test system is normal bronchial epithelial cells (BEAS-2B). As to the kind of experiment: cell viability (MTT assay), BEAS-2B. In kind it is cell-based, human. The following applies: for IC50: Homo sapiens, BEAS-2B, 48 h exposure, nonlinear regression, predictive estimates. The method, then:
Human bronchial epithelial (BEAS-2B; CRL-3588) and human lung carcinoma (A549; CCL-185) cell lines were obtained from ATCC®. BEAS and A549 cells were maintained in complete RPMI 1640 (Merck, Darmstadt, Germany) at 37 °C and 5% CO2. The medium was supplemented with 10% heat-inactivated fetal bovine serum (FBS), 1% penicillin/streptomycin and 1% sodium pyruvate.
Cells were seeded at different densities according to the different experimental techniques performed (MTT assay and cell cycle analysis) and left to adhere for 24 h. Next, the medium was removed, and cells were treated with tested compounds, dissolved in dimethyl sulfoxide (DMSO) to achieve concentrations ranging from 0 µM (untreated control = CTRL) to 150 µM. The final DMSO concentration was kept below 0.3%. Cell viability was evaluated at up to 72 h post-treatment. Images were acquired 48 h after treatments by means of a light phase-contrast microscope equipped with a camera (Leica). Images were acquired and analyzed by the Leica Application Suite LAS EZ version 3.4 (Leica, Wetzlar, Germany).
(§1) BEAS and A549 cells were seeded in 96-well culture-treated plates (Falcon®, Corning Incorporated, Brooklyn, NY, USA) at a density of 0.5 × 10^4 cells/well. Untreated cells were set as the experimental control, representing 100% of cell viability. Exposure times varied from 24 up to 72 h. At the established time points (24, 48 and 72 h), the exposure medium was replaced with fresh medium containing 0.5 mg/mL 3-(4,5-dimethylthiazol-2-yl)-2,5-diphenyltetrazolium bromide (MTT) (Merck, Darmstadt, Germany) and processed as previously reported. The optical density in each well was measured at a wavelength of 540 nm using a spectrophotometer (Thermo Fisher Scientific, Waltham, MA, USA). Each experiment was performed in triplicate per experimental conditions (n = 3).

Another test concerns the target h-CA II (Homo sapiens, UniProt P00918). Nature of the test: stopped-flow CO2 hydrase assay, h-CA II.
Test [2] relates to bronchial adenocarcinoma cells (A549). Nature of the test: cell viability (MTT assay), A549. The following applies: for IC50: Homo sapiens, A549, 48 h exposure, nonlinear regression, predictive estimates. In kind it is cell-based, human. The method, then: The medium was supplemented with 10% heat-inactivated fetal bovine serum (FBS), 1% penicillin/streptomycin and 1% sodium pyruvate.
Cells were seeded at different densities according to the different experimental techniques performed (MTT assay and cell cycle analysis) and left to adhere for 24 h. […] The final DMSO concentration was kept below 0.3%. Cell viability was evaluated at up to 72 h post-treatment. Images were acquired 48 h after treatments by means of a light phase-contrast microscope equipped with a camera (Leica). Images were acquired and analyzed by the Leica Application Suite LAS EZ version 3.4 (Leica, Wetzlar, Germany).
as §1

Sequence of h-CA XII (O43570 25-354): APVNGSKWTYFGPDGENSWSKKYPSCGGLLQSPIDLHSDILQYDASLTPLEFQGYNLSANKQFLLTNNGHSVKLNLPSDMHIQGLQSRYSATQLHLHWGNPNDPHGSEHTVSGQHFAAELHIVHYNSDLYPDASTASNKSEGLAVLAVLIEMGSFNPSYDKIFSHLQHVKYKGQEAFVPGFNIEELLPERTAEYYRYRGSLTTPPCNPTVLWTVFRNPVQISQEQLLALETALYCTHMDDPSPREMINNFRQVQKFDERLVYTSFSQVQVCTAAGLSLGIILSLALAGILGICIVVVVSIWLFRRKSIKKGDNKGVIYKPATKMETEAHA

Broadly, the Ki is a measure of affinity in units of concentration, obtained from inhibition or displacement. The low end stands for higher affinity, the high end for lower affinity. The IC50 is the concentration needed to halve the response being measured. As for `O=C(NCc1ccccc1)c1cc2ccc(O)cc2oc1=O` [Compound 4, N-Benzyl-7-Hydroxy-2-Oxo-2H-Chromene-3-Carboxamide], the inhibitory constant (Ki) is 42.2 µM at h-CA IX, 7.5 µM at h-CA XII, over 100 µM at h-CA I and over 100 µM at h-CA II. Also, the IC50 in test [1] is 344.9 ± 3.14 µM.
With `Cc1ccccc1CNC(=O)c1cc2ccc(O)cc2oc1=O` [Compound 5, 7-Hydroxy-N-(2-Methylbenzyl)-2-Oxo-2H-Chromene-3-Carboxamide], the inhibition constant Ki on h-CA IX was 25.4 µM; at h-CA XII it was 35.5 µM; on h-CA I, over 100 µM; at h-CA II, over 100 µM. Also, the IC50 is 181.2 ± 1.2 µM in test [1] and 248.2 ± 1.57 µM in test [2]. For the same compound, the “SI (selectivity index, IC50 BEAS/IC50 A549 ratio)” value in test [2] (48 h) worked out at 0.730.
In the case of `Cc1cccc(CNC(=O)c2cc3ccc(O)cc3oc2=O)c1` [Compound 6, 7-Hydroxy-N-(3-Methylbenzyl)-2-Oxo-2H-Chromene-3-Carboxamide], the Ki on h-CA IX was 82.5 µM; at h-CA XII, 9.3 µM; at h-CA I it was over 100 µM; on h-CA II it was over 100 µM. Moreover, the IC50 in test [1] is 117.9 ± 1.08 µM; in test [2] it was 90 ± 1.07 µM. Also, the “SI (selectivity index, IC50 BEAS/IC50 A549 ratio)” value in test [2] (48 h) was 1.309.
Take `O=C(NCc1ccccc1Cl)c1cc2ccc(O)cc2oc1=O` [Compound 19, N-(2-Chlorobenzyl)-7-Hydroxy-2-Oxo-2H-Chromene-3-Carboxamide]: the inhibitory constant (Ki) on h-CA IX is 19.3 µM; at h-CA XII, 64.9 µM; at h-CA I it was over 100 µM; at h-CA II, over 100 µM. The “selectivity on h-CA IX over h-CA XII (in words)” value at h-CA IX (comparison of Ki values) was “about three times more active on h-CA IX”. Besides, the half-maximal inhibitory concentration (IC50) was 40.7 ± 1.1 µM in test [1] and 32 ± 1.22 µM in test [2]. The “SI (selectivity index, IC50 BEAS/IC50 A549 ratio)” value in test [2] (48 h) came out at 1.271.
`O=C(NCc1c(Cl)cccc1Cl)c1cc2ccc(O)cc2oc1=O` [Compound 24, N-(2,6-Dichlorobenzyl)-7-Hydroxy-2-Oxo-2H-Chromene-3-Carboxamide]: the Ki at h-CA IX is 85.6 µM; at h-CA XII it was 75.1 µM; on h-CA I, over 100 µM; at h-CA II, over 100 µM.
As for `COc1ccc(CCNC(=O)c2cc3ccc(O)cc3oc2=O)cc1` [Compound 26, 7-Hydroxy-N-(4-Methoxyphenethyl)-2-Oxo-2H-Chromene-3-Carboxamide], the Ki at h-CA IX was 80.8 µM; on h-CA XII it was 57.7 µM; at h-CA I, over 100 µM; at h-CA II it was over 100 µM.
Take `COc1ccc(CCNC(=O)c2cc3ccc(O)cc3oc2=O)cc1OC` [Compound 27, N-(3,4-Dimethoxyphenethyl)-7-Hydroxy-2-Oxo-2H-Chromene-3-Carboxamide]: the Ki on h-CA IX was 84.7 µM; on h-CA XII, 50.8 µM; on h-CA I it was over 100 µM; at h-CA II it was over 100 µM.
For the compound `O=C(NCCc1ccc(F)cc1)c1cc2ccc(O)cc2oc1=O` [Compound 28, N-(4-Fluorophenethyl)-7-Hydroxy-2-Oxo-2H-Chromene-3-Carboxamide], the Ki at h-CA IX is 80.4 µM; at h-CA XII, 66.9 µM; on h-CA I it was over 100 µM; on h-CA II, over 100 µM.
For `O=C(c1cc2ccc(O)cc2oc1=O)N1CCN(Cc2ccccc2)CC1` [Compound 31, 3-(4-Benzylpiperazine-1-Carbonyl)-7-Hydroxy-2H-Chromen-2-One], the Ki on h-CA IX was 84.1 µM; at h-CA XII, 59.5 µM; on h-CA I, over 100 µM; at h-CA II, over 100 µM.
On to `Cc1cccc(N2CCN(C(=O)c3cc4ccc(O)cc4oc3=O)CC2)c1` [Compound 33, 7-Hydroxy-3-(4-(m-tolyl)piperazine-1-Carbonyl)-2H-Chromen-2-One], for which the inhibition constant Ki at h-CA IX is 89.3 µM; on h-CA XII, 40.5 µM; on h-CA I, over 100 µM; on h-CA II, over 100 µM.
Take `Cc1ccc(N2CCN(C(=O)c3cc4ccc(O)cc4oc3=O)CC2)cc1` [Compound 34, 7-Hydroxy-3-(4-(p-tolyl)piperazine-1-Carbonyl)-2H-Chromen-2-One]: the inhibition constant Ki on h-CA IX was 83.2 µM; on h-CA XII, 56 µM; on h-CA I, over 100 µM; on h-CA II, over 100 µM.
Regarding `Cc1cccc(N2CCN(C(=O)c3cc4ccc(O)cc4oc3=O)CC2)c1C` [Compound 35, 3-(4-(2,3-Dimethylphenyl)piperazine-1-Carbonyl)-7-Hydroxy-2H-Chromen-2-One], the inhibition constant Ki was 82.2 µM on h-CA IX, 41.4 µM at h-CA XII, over 100 µM on h-CA I and over 100 µM on h-CA II.
Take `Cc1ccc(N2CCN(C(=O)c3cc4ccc(O)cc4oc3=O)CC2)c(C)c1` [Compound 36, 3-(4-(2,4-Dimethylphenyl)piperazine-1-Carbonyl)-7-Hydroxy-2H-Chromen-2-One]: the Ki was 78.1 µM at h-CA IX, 69.7 µM at h-CA XII, over 100 µM on h-CA I and over 100 µM at h-CA II.
On to `Cc1ccc(C)c(N2CCN(C(=O)c3cc4ccc(O)cc4oc3=O)CC2)c1` [Compound 37, 3-(4-(2,5-Dimethylphenyl)piperazine-1-Carbonyl)-7-Hydroxy-2H-Chromen-2-One], for which the Ki on h-CA IX was 75.9 µM; on h-CA XII, 63.4 µM; on h-CA I it was over 100 µM; on h-CA II, over 100 µM.
With `Cc1cc(C)cc(N2CCN(C(=O)c3cc4ccc(O)cc4oc3=O)CC2)c1` [Compound 39, 3-(4-(3,5-Dimethylphenyl)piperazine-1-Carbonyl)-7-Hydroxy-2H-Chromen-2-One], the Ki was 68.1 µM on h-CA IX, 46.8 µM at h-CA XII, over 100 µM on h-CA I and over 100 µM at h-CA II.
Consider `O=C(c1cc2ccc(O)cc2oc1=O)N1CCN(c2ccccc2[N+](=O)[O-])CC1` [Compound 40, 7-Hydroxy-3-(4-(2-Nitrophenyl)piperazine-1-Carbonyl)-2H-Chromen-2-One], for which the Ki at h-CA IX is 85.2 µM; on h-CA XII, 63.8 µM; at h-CA I, over 100 µM; at h-CA II it was over 100 µM.
With `O=C(c1cc2ccc(O)cc2oc1=O)N1CCN(c2cccc([N+](=O)[O-])c2)CC1` [Compound 41, 7-Hydroxy-3-(4-(3-Nitrophenyl)piperazine-1-Carbonyl)-2H-Chromen-2-One], the Ki was 25.4 µM on h-CA IX, 47.5 µM at h-CA XII, over 100 µM at h-CA I and over 100 µM on h-CA II.
On to `O=C(c1cc2ccc(O)cc2oc1=O)N1CCN(c2ccc([N+](=O)[O-])cc2)CC1` [Compound 42, 7-Hydroxy-3-(4-(4-Nitrophenyl)piperazine-1-Carbonyl)-2H-Chromen-2-One], for which the inhibition constant Ki on h-CA IX was 30.1 µM; on h-CA XII it was 62.8 µM; on h-CA I, over 100 µM; on h-CA II, over 100 µM.
Regarding `COc1cccc(N2CCN(C(=O)c3cc4ccc(O)cc4oc3=O)CC2)c1` [Compound 43, 7-Hydroxy-3-(4-(3-Methoxyphenyl)piperazine-1-Carbonyl)-2H-Chromen-2-One], the Ki at h-CA IX is 40.4 µM; on h-CA XII, 79.9 µM; on h-CA I it was over 100 µM; on h-CA II, over 100 µM.
Take `COc1cccc2c1C(=O)c1c(O)c3c(c(O)c1C2=O)C[C@@](O)(C(=O)CO)C[C@@H]3O[C@H]1C[C@H](N)[C@H](O)[C@H](C)O1` [doxorubicin, reference compound]: the “cell viability of BEAS cells” value in test [1] (1 µM, 48 h) is listed as “dramatically decreased”. Besides, in test [2] (1 µM, 48 h), the “cell viability of A549 cells” value was “dramatically decreased”.

(Values after article PMC11944513, “Investigation on Human Carbonic Anhydrase IX and XII Inhibitory Activity and A549 Antiproliferative Activity of a New Class of Coumarinamides” (Pharmaceuticals, 2025).)
